PubChem BioAssay (NCI)
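Interpolation was linear, between the two tested concentrations surrounding the appropriate level; five concentrations were tested over 48 hours in 96-well plates. Here, GI50 denotes the concentration required for 50% inhibition of growth. At the TGI there is no net growth.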

What was measured:
Test in all cases: DTP human tumour cell line panel, 48 h
[1] = system: SF-268 CNS
[2] = system: A498 renal
[3] = system: SK-MEL-28 melanoma
[4] = system: OVCAR-8 ovarian
[5] = system: SW-620 colon
[6] = system: KM12 colon
[7] = system: HOP-92 NSCLC
[8] = system: SN12C renal
[9] = system: EKVX NSCLC
[10] = system: SF-295 CNS

Compound	GI50 [1] [µM]	TGI [1] [µM]	GI50 [2] [µM]	TGI [2] [µM]	GI50 [3] [µM]	TGI [3] [µM]	GI50 [4] [µM]	TGI [4] [µM]	GI50 [5] [nM]	TGI [5] [µM]	GI50 [6] [nM]	TGI [6] [µM]	GI50 [7] [µM]	TGI [7] [µM]	GI50 [8] [µM]	TGI [8] [µM]	GI50 [9] [µM]	TGI [9] [µM]	GI50 [10] [nM]	TGI [10] [µM]
CN1/C(=C\C=C\C2=[N+](C)c3ccccc3C2(C)C)C(C)(C)c2ccccc21	0.274	13	0.0556	0.979	0.412	2.84	0.101	7.52	136	3.79	36.3	0.932	0.128	0.58	0.155	1.11	0.0297	7.3	33.6	1.27
O=C1CCCCN1CCCCC#Cc1cccc(C#Cc2cccnc2)c1	27	> 100	42.8	> 100	38.7	> 100	21.6	67.9	39900	> 100	20400	> 100	19.2	> 100	14.1	28.5	23.5	> 100	18100	84
Nc1ccc(/C=C/C(=O)NCc2cc3cc(-c4ccc(C(=O)N5CCC(F)(F)CC5)cc4)cc(-c4ccc(F)cc4)c3o2)cn1	> 100	> 100	> 100	> 100	> 100	> 100	0.0404	> 100	57.1	> 100	1210	> 100	28.3	> 100	0.0589	> 100	> 100	> 100	–	> 100
COc1ccc(OC)c(Cn2cc3c(c2-c2ccccc2)CCc2cnoc2-3)c1	6.24	> 100	2.12	9.28	6.8	> 100	19.2	> 100	3690	> 100	3610	> 100	5.26	> 100	23.8	> 100	6.9	> 100	3190	> 100
C/C(=N\NC(=O)CC#N)c1c(O)cc(C)oc1=O	–	> 100	–	> 100	–	> 100	–	> 100	–	> 100	–	> 100	–	> 100	–	> 100	–	> 100	–	> 100
O=[N+]([O-])c1ccc(-c2ccc(-c3csc(Nc4ccccc4)n3)o2)cc1	–	33.2	–	34.5	–	32.2	–	40.7	–	56.7	–	38.3	–	37	–	33	–	33.5	–	> 86.4
C=C(C)C1C/C=C(/C)CCCC2(CCC3=C(CC(C(=C)C)C/C=C(/C)CCC3)O2)C(=O)C1 (stereo not drawn)	–	> 100	–	> 100	–	> 100	–	> 100	–	> 100	–	> 100	–	> 100	–	> 100	–	> 100	–	> 100
COC(=O)C(/C(=N\O)C(=O)Nc1cccc(Cl)c1C)c1cnc2ccccc2n1 (stereo not drawn)	–	> 100	–	> 100	–	> 100	–	> 100	–	> 100	–	> 100	–	> 100	–	> 100	–	> 100	–	> 100
c1c[nH]c(CN2CCOCC2)n1	–	> 100	–	> 100	–	> 100	–	> 100	–	> 100	–	> 100	–	> 100	–	> 100	–	> 100	–	> 100
CC(=O)c1ccc(O)c(CN(C2CCCCC2)C2CCCCC2)c1O	–	> 100	–	> 100	–	> 100	–	> 100	–	> 100	–	> 100	–	> 100	–	> 100	–	> 100	–	> 100
O=C(O)[C@@H](Cc1ccc2ccccc2c1)NC(=O)n1c2ccccc2c2ccccc21	3.77	36.2	2.23	9.31	11.4	46.8	4.16	> 100	4040	> 100	2180	14.3	1.33	7.74	3.94	17.7	5.56	62.2	2290	8.97
CCOC(=O)C1SC(=Nc2ccc(Cl)cc2)N=C1C (stereo not drawn)	–	34	–	41.3	–	40.9	–	43.3	–	35.2	–	36.1	–	29.6	–	31.3	–	45.2	–	34.9
C=C1C[C@@H]2CC[C@@]34C[C@H]5O[C@H]6[C@@H](O3)[C@H]3O[C@H](CC[C@@H]3O[C@H]6[C@@H]5O4)CC(=O)C[C@@H]3[C@@H](OC)[C@@H](C[C@H](O)CN)O[C@H]3C[C@H]3O[C@@H](CC[C@@H]1O2)C[C@@H](C)C3=C	0.304	> 100	< 0.0119	0.0456	–	> 100	< 0.0153	> 100	< 10	> 100	< 10	> 100	0.0734	79.4	< 0.01	> 100	< 0.01	> 100	< 10	0.839
O=C(N/N=C/c1ccccc1O)c1ccccc1	1.07	> 100	7.28	> 100	6.69	> 100	3.46	> 100	2840	> 100	4100	> 100	5.84	> 100	2.45	> 100	2	> 100	1100	52.1
O=c1c(F)cn(Cc2ccccc2CCl)c(=O)n1Cc1ccccc1CCl	2.04	4.81	1.58	5.97	1.4	3.32	0.977	2.99	1450	3.73	1740	3.68	2.35	6.85	2.75	10.4	3.07	9.22	2140	6.16
COc1cc(NCCCCCCCNC(C)C)c2nccc(C)c2c1	16.3	31.9	15.3	29.6	17.7	32.1	15.2	33.5	12600	28.6	13700	27.9	10.7	23.8	12.2	25.7	10.9	26.5	14100	29.6
COC(=O)C1(O)CC(=O)CCC1c1ccc(OC)cc1 (stereo not drawn)	–	> 100	–	> 100	–	> 100	–	> 100	–	> 100	–	> 100	–	> 100	–	> 100	–	> 100	–	> 100
O=C(/C=C/c1ccccc1)c1ccc(NCc2nc3ccccc3[nH]2)cc1	–	20.9	–	18.3	–	32.6	–	14.9	–	8.43	–	4.54	–	22.5	–	15.4	–	22.5	–	13.1
CCN(C(=O)/C=C/c1ccco1)c1ccccc1	–	> 100	–	> 100	–	> 100	–	> 100	–	> 100	–	> 100	–	> 100	–	> 100	–	> 100	–	> 100
Cc1ccc(NC(=O)c2cc(S(=O)(=O)N3C(=O)NC(=O)NS3(=O)=O)c(S)cc2Cl)cc1	38.1	> 100	26.2	68.5	34.4	> 100	30.7	90.6	31600	> 100	22200	52.2	15.6	54.7	31.2	> 100	29.5	96.7	26200	55
Cc1ccccc1C(=O)N1CCN(C(=O)c2ccccc2C)CC1	–	> 100	–	> 100	–	> 100	–	> 100	–	> 100	–	> 100	–	> 100	–	> 100	–	> 100	–	> 100
c1ccc2[nH]c(-c3ccc(Nc4nc(N5CCCCC5)nc(N5CCOCC5)n4)cc3)nc2c1	3.21	20.1	1.77	4.18	1.8	4.02	3.24	14.3	2340	5.87	2850	9.54	1.99	4.32	5.4	53.2	2.68	> 100	1850	4.6
CC(C)(C)OC(=O)NCCCCCCCn1c2c(c3ccccc3c1=O)C(=O)c1ccccc1-2	25.4	93.6	4.74	42.2	50.4	> 100	21.5	> 100	44000	> 100	60600	> 100	15	37.1	73.7	> 100	> 100	> 100	37400	> 100
CC(NC(=O)N(C)C)NC(=O)N(C)C	–	> 10	–	> 10	–	> 10	–	> 10	–	> 10	–	> 10	–	> 10	–	> 10	–	> 10	–	> 10
CCOC(=O)/C(C#N)=C\C=C(/Cl)c1ccc(Cl)cc1	27.9	> 77	32.3	> 79.3	15.5	32.3	19.4	42.1	5940	26.3	20000	45.8	17.5	47.2	21	54.7	26.5	63.9	19000	38.1
O=C1OCC2=C1C(c1ccccc1)c1cc3c(cc1N2CCO)OCO3 (stereo not drawn)	3.82	> 50	3.38	> 50	> 50	> 50	12.1	> 50	2180	> 50	2370	> 50	13.9	> 50	20.2	> 50	14	> 50	1250	3.53
O=c1oc2ccccc2[n+]([O-])c1-c1ccccc1	–	> 100	–	> 100	–	> 100	–	> 100	–	> 100	–	> 100	–	> 100	–	> 100	–	> 100	–	> 100
CC(=O)N1CCC2(c3ccccc3N(C(C)=O)C2c2ccc(O)cc2)C1C(=O)O (stereo not drawn)	–	> 100	–	> 100	–	> 100	–	> 100	–	> 100	–	> 100	–	> 100	–	> 100	–	> 100	–	> 100
CC(=O)/C(=C/c1ccccc1F)C(=O)c1ccccc1	–	> 100	–	> 100	–	> 100	–	51	–	56.1	–	> 100	–	> 100	–	> 100	–	> 100	–	> 100
C=C1C(=O)O[C@H]2[C@H]1CC/C(C=Nc1c(N)cc(C(F)(F)F)cc1Br)=C\CC[C@@]1(C)O[C@@H]21	1.4	3.34	2.03	4.8	1.88	3.66	2.34	9.03	1530	3.71	1800	3.97	1.17	2.75	1.5	3.51	1.84	5.1	2660	7.96
